In test [1] the test system is human lung cancer strain NCI-H441. Format: cell-based. In short, it runs like this:
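Readout: […] after the ATP-based reagent. Compound: serial dilutions in dimethyl sulfoxide.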

The target of test [2] is GDP-bound NRAS wild-type protein (Homo sapiens, UniProt P01111). Put plainly: Binding to NRAS by surface plasmon resonance (SPR), KD and KD ratio to KRAS. Particulars: ratio of KD for GDP-bound NRAS wild-type protein to KD for KRAS. In short, it runs like this:
(§1)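 GDP-loaded biotinylated Avi-tag RAS proteins (E. coli-expressed) captured on a Biotin CAPture chip at ~100–300 RU; single-cycle kinetics at 30°C, 100 µL/min, 75 s injections of rising compound concentrations. HBS pH 7.4 running buffer with 1 mM DTT, 10 mM MgCl2, 10 µM GDP, 4% DMSO. KD from 1:1 binding fit.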

A further test has as its target HRAS wild-type protein (Homo sapiens, UniProt P01112). Put plainly: Binding to HRAS by surface plasmon resonance (SPR), KD and KD ratio to KRAS. Particulars: ratio of KD for HRAS wild-type protein to KD for KRAS. In short, it runs like this:
as §1

Molecules are shown by their SMILES. Where a SMILES comes first, the peptide text is derived from it. Bridges are numbered along the chain shown (N, C = ends). [ ]: non-standard residue; d: D form. The star is where a group is joined. ξ: configuration not given here. hPhe(3-Cl-4-CF3) = N[C@@H](CCc1ccc(C(F)(F)F)c(Cl)c1)C(=O)O; NPrPhe(4-CF3) = CCCN[C@@H](Cc1ccc(C(F)(F)F)cc1)C(=O)O; NMeGly(cPent) = CN[C@H](C(=O)O)C1CCCC1; NEtLeu = CCN[C@@H](CC(C)C)C(=O)O; NMeD = CN[C@@H](CC(=O)O)C(=O)O; NMeL = CN[C@@H](CC(C)C)C(=O)O; NEtAla = CCN[C@@H](C)C(=O)O; ξNMeD = CNC(CC(=O)O)C(=O)O; Morpholide = C1CN(*)CCO1; NMeA = CN[C@@H](C)C(=O)O; dNMeA = CN[C@H](C)C(=O)O; Ac5c = NC1(C(=O)O)CCCC1; Aze = O=C(O)[C@@H]1CCN1; ξP = O=C(O)C1CCCN1; Sar = CNCC(=O)O

GDP-bound NRAS wild-type protein, sequence (P01111 whole entry): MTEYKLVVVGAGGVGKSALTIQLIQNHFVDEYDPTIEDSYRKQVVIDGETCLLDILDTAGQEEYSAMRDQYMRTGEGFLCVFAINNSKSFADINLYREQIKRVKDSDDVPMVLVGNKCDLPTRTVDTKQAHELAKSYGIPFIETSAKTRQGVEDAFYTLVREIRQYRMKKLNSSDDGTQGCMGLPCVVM
HRAS wild-type protein, sequence (P01112 whole entry): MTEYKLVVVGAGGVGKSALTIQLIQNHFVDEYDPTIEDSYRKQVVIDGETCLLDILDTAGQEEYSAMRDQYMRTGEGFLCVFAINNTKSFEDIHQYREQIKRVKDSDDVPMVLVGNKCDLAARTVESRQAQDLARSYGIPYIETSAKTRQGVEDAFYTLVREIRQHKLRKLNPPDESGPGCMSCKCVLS

`CCCN1C(=O)CN(C)C(=O)CN(C)C(=O)[C@H]([C@@H](C)CC)NC(=O)[C@H](CC(C)C)N(C)C(=O)C[C@@H](C(=O)N2CCOCC2)NC(=O)[C@H](C2CCCC2)N(C)C(=O)C2(CCCC2)NC(=O)[C@@H]2CCCN2C(=O)[C@H](CCc2ccc(C(F)(F)F)c(Cl)c2)NC(=O)CN(C)C(=O)[C@@H]1Cc1ccc(C(F)(F)F)cc1` [PP0146] ([NMeL]I[Sar][Sar][NPrPhe(4-CF3)][Sar][hPhe(3-Cl-4-CF3)]P[Ac5c][NMeGly(cPent)]D-Morpholide; lactam N-11) gave an IC50 in test [1] of 23.9 nM. Further, the “NRAS /KRAS” value in test [2] was “B (a compound having 3 or more and less than 10 is denoted as B)”. In addition, on HRAS wild-type protein, the “HRAS /KRAS” value was “B (a compound having 3 or more and less than 10 is denoted as B)”.
`CCCN1C(=O)CN(C)C(=O)CN(C)C(=O)[C@H]([C@@H](C)CC)NC(=O)[C@H](CC(C)C)N(C)C(=O)C[C@@H](C(=O)N2CCOCC2)N(C)C(=O)[C@H](C2CCCC2)N(C)C(=O)C2(CCCC2)NC(=O)[C@@H]2CCCN2C(=O)[C@H](CCc2ccc(C(F)(F)F)c(Cl)c2)NC(=O)[C@@H](C)N(C)C(=O)[C@@H]1Cc1ccc(C(F)(F)F)cc1` [PP0148] ([NMeL]I[Sar][Sar][NPrPhe(4-CF3)][dNMeA][hPhe(3-Cl-4-CF3)]P[Ac5c][NMeGly(cPent)][NMeD]-Morpholide; lactam N-11) registered an IC50 in test [1] of 38 nM. Moreover, the “NRAS /KRAS” value in test [2] is “B (a compound having 3 or more and less than 10 is denoted as B)”. Besides, at HRAS wild-type protein, the “HRAS /KRAS” value is “B (a compound having 3 or more and less than 10 is denoted as B)”.
In test [1], `CCCN1C(=O)CN(C)C(=O)CN(C)C(=O)[C@H]([C@@H](C)CC)NC(=O)[C@H](CC(C)C)N(C)C(=O)CC(C(=O)N2CCOCC2)N(C)C(=O)[C@H](C2CCCC2)N(C)C(=O)C2(CCCC2)NC(=O)[C@@H]2CCCN2C(=O)[C@H](CCc2ccc(C(F)(F)F)c(Cl)c2)NC(=O)C2CCCN2C(=O)[C@@H]1Cc1ccc(C(F)(F)F)cc1` (stereo partly drawn) [PP0149] ([NMeL]I[Sar][Sar][NPrPhe(4-CF3)][ξP][hPhe(3-Cl-4-CF3)]P[Ac5c][NMeGly(cPent)][ξNMeD]-Morpholide; lactam N-11) showed an IC50 of 317 nM. Further, the “NRAS /KRAS” value in test [2] was “C (A compound having a KD ratio of 0.1 or more and less than 3 is denoted as C)”. Also, the “HRAS /KRAS” value on HRAS wild-type protein is “B (a compound having 3 or more and less than 10 is denoted as B)”.
In turn, `CCCN1C(=O)CN(C)C(=O)CN(C)C(=O)[C@H]([C@@H](C)CC)NC(=O)[C@H](CC(C)C)N(C)C(=O)C[C@@H](C(=O)N2CCOCC2)N(C)C(=O)[C@H](C2CCCC2)N(C)C(=O)[C@@H](C)NC(=O)[C@@H]2CCCN2C(=O)[C@H](CCc2ccc(C(F)(F)F)c(Cl)c2)NC(=O)CN(C)C(=O)[C@@H]1Cc1ccc(C(F)(F)F)cc1` [PP0150] ([NMeL]I[Sar][Sar][NPrPhe(4-CF3)][Sar][hPhe(3-Cl-4-CF3)]P[dA][NMeGly(cPent)][NMeD]-Morpholide; lactam N-11) yielded an IC50 in test [1] of 49.1 nM. Besides, in test [2], the “NRAS /KRAS” value was “B (a compound having 3 or more and less than 10 is denoted as B)”. The “HRAS /KRAS” value on HRAS wild-type protein is “C (A compound having a KD ratio of 0.1 or more and less than 3 is denoted as C)”.
`CCCN1C(=O)[C@@H]2CCN2C(=O)[C@H](C)N(C)C(=O)[C@H]([C@@H](C)CC)NC(=O)[C@H](CC(C)C)N(CC)C(=O)C[C@@H](C(=O)N2CCOCC2)N(C)C(=O)[C@H](C2CCCC2)N(C)C(=O)C2(CCCC2)NC(=O)[C@@H]2CCCN2C(=O)[C@H](CCc2ccc(C(F)(F)F)c(Cl)c2)NC(=O)CN(C)C(=O)[C@@H]1Cc1ccc(C(F)(F)F)cc1` [PP0151] ([NEtLeu]I[NMeA][Aze][NPrPhe(4-CF3)][Sar][hPhe(3-Cl-4-CF3)]P[Ac5c][NMeGly(cPent)][NMeD]-Morpholide; lactam N-11) registered an IC50 in test [1] of 5.3 nM. Moreover, the “NRAS /KRAS” value in test [2] was “C (A compound having a KD ratio of 0.1 or more and less than 3 is denoted as C)”. Also, the “HRAS /KRAS” value at HRAS wild-type protein is “C (A compound having a KD ratio of 0.1 or more and less than 3 is denoted as C)”.
As to `CCCN1C(=O)[C@@H]2CCN2C(=O)[C@H](C)N(CC)C(=O)[C@H]([C@@H](C)CC)NC(=O)[C@H](CC(C)C)N(C)C(=O)C[C@@H](C(=O)N2CCOCC2)N(C)C(=O)[C@H](C2CCCC2)N(C)C(=O)C2(CCCC2)NC(=O)[C@@H]2CCCN2C(=O)[C@H](CCc2ccc(C(F)(F)F)c(Cl)c2)NC(=O)CN(C)C(=O)[C@@H]1Cc1ccc(C(F)(F)F)cc1` [PP0152] ([NMeL]I[NEtAla][Aze][NPrPhe(4-CF3)][Sar][hPhe(3-Cl-4-CF3)]P[Ac5c][NMeGly(cPent)][NMeD]-Morpholide; lactam N-11), the IC50 in test [1] was 37.9 nM. Moreover, the “NRAS /KRAS” value in test [2] was “C (A compound having a KD ratio of 0.1 or more and less than 3 is denoted as C)”. In addition, the “HRAS /KRAS” value at HRAS wild-type protein is “B (a compound having 3 or more and less than 10 is denoted as B)”.
Regarding `CCCN1C(=O)[C@@H]2CCN2C(=O)[C@H](C)N(C)C(=O)[C@H]([C@@H](C)CC)NC(=O)[C@H](CC(C)C)N(C)C(=O)C[C@@H](C(=O)N2CCOCC2)N(C)C(=O)[C@H](C2CCCC2)N(C)C(=O)C2(CCCC2)NC(=O)[C@H](C)NC(=O)[C@H](CCc2ccc(C(F)(F)F)c(Cl)c2)NC(=O)CN(C)C(=O)[C@@H]1Cc1ccc(C(F)(F)F)cc1` [PP0153] ([NMeL]I[NMeA][Aze][NPrPhe(4-CF3)][Sar][hPhe(3-Cl-4-CF3)]A[Ac5c][NMeGly(cPent)][NMeD]-Morpholide; lactam N-11), the IC50 in test [1] stood at 11.6 nM. Moreover, in test [2], the “NRAS /KRAS” value was “C (A compound having a KD ratio of 0.1 or more and less than 3 is denoted as C)”. Moreover, at HRAS wild-type protein, the “HRAS /KRAS” value was “C (A compound having a KD ratio of 0.1 or more and less than 3 is denoted as C)”.
As to `CCCN1C(=O)[C@@H]2CCN2C(=O)[C@H](C)N(C)C(=O)[C@H]([C@@H](C)CC)NC(=O)[C@H](CC(C)C)NC(=O)C[C@@H](C(=O)N2CCOCC2)N(C)C(=O)[C@H](C2CCCC2)N(C)C(=O)C2(CCCC2)NC(=O)[C@@H]2CCCN2C(=O)[C@H](CCc2ccc(C(F)(F)F)c(Cl)c2)NC(=O)CN(C)C(=O)[C@@H]1Cc1ccc(C(F)(F)F)cc1` [PP0154] (LI[NMeA][Aze][NPrPhe(4-CF3)][Sar][hPhe(3-Cl-4-CF3)]P[Ac5c][NMeGly(cPent)][NMeD]-Morpholide; lactam N-11), in test [1], 9.9 nM corresponded to half-maximal inhibition (IC50). Besides, in test [2], the “NRAS /KRAS” value was “C (A compound having a KD ratio of 0.1 or more and less than 3 is denoted as C)”. For the same compound, the “HRAS /KRAS” value on HRAS wild-type protein was “B (a compound having 3 or more and less than 10 is denoted as B)”.
In turn, `CCCN1C(=O)CN(C)C(=O)CNC(=O)[C@H]([C@@H](C)CC)NC(=O)[C@H](CC(C)C)N(C)C(=O)C[C@@H](C(=O)N2CCOCC2)N(C)C(=O)[C@H](C2CCCC2)N(C)C(=O)C2(CCCC2)NC(=O)[C@@H]2CCCN2C(=O)[C@H](CCc2ccc(C(F)(F)F)c(Cl)c2)NC(=O)CN(C)C(=O)[C@@H]1Cc1ccc(C(F)(F)F)cc1` [PP0155] ([NMeL]IG[Sar][NPrPhe(4-CF3)][Sar][hPhe(3-Cl-4-CF3)]P[Ac5c][NMeGly(cPent)][NMeD]-Morpholide; lactam N-11) returned an IC50 in test [1] of 2.8 nM. Further, in test [2], the “NRAS /KRAS” value was “B (a compound having 3 or more and less than 10 is denoted as B)”. For the same compound, the “HRAS /KRAS” value at HRAS wild-type protein was “C (A compound having a KD ratio of 0.1 or more and less than 3 is denoted as C)”.

For orientation: IC50 means the concentration that gives 50% inhibition.

The values are drawn from patent EP4603105A1, “PHARMACEUTICAL COMPOSITION CONTAINING CYCLIC COMPOUND HAVING SELECTIVE KRAS INHIBITORY EFFECT AGAINST HRAS AND NRAS” (CHUGAI SEIYAKU KABUSHIKI KAISHA, priority 2022, dated 2024).
